A value given as a limit tells only on which side of the number the result lay.

For this test, the system named is pentagastrin-stimulated acid secretion of the perfused rat stomach. As to the kind of experiment: Secretion-inhibiting action on the perfused rat stomach (pentagastrin-stimulated acid secretion). The test is classed as in vivo. To be noted: anesthetized CD rat, dose 2.2 μmol/kg i.d. (intraduodenal). From the text:
Testing of the Secretion-Inhibiting Action on the Perfused Rat Stomach
In Table A which follows, the influence of the compounds according to the invention on the pentagastrin-stimulated acid secretion of the perfused rat stomach after intraduodenal administration in vivo is shown.
The abdomen of anesthetized rats (CD rat, female, 200-250 g; 1.5 g/kg i.m. urethane) was opened after tracheotomy by a median upper abdominal incision and a PVC catheter was fixed transorally in the esophagus and another via the pylorus such that the ends of the tubes just projected into the gastric lumen. The catheter leading from the pylorus led outward into the right abdominal wall through a side opening.
After thorough rinsing (about 50-100 ml), warm (37° C.) physiological NaCl solution was continuously passed through the stomach (0.5 ml/min, pH 6.8-6.9; Braun-Unita I). The pH (pH meter 632, glass electrode EA 147; φ=5 mm, Metrohm) and, by titration with a freshly prepared 0.01N NaOH solution to pH 7 (Dosimat 665 Metrohm), the secreted HCl were determined in the effluent in each case collected at an interval of 15 minutes.
The gastric secretion was stimulated by continuous infusion of 1 μg/kg (=1.65 ml/h) of i.v. pentagastrin (left femoral vein) about 30 min after the end of the operation (i.e. after determination of 2 preliminary fractions). The substances to be tested were administered intraduodenally in a 2.5 ml/kg liquid volume 60 min after the start of the continuous pentagastrin infusion.
The body temperature of the animals was kept at a constant 37.8-38° C. by infrared irradiation and heat pads (automatic, stepless control by means of a rectal temperature sensor).
In the case of `COc1ccc2nc([S+]([O-])Cc3nccc(N4CCOCC4)c3Cl)[nH]c2n1` (stereo not drawn) [Example 1, 2-(3Chloro-4-morpholin-4-yl-pyridin-2-ylmethanesulfinyl)-5-methoxy-3H-imidazo[4,5-b]pyridine], the “Inhibition of acid secretion (%)” value is over 50%. In the case of `COc1ccc2nc([S@@+]([O-])Cc3nccc(N4CCOCC4)c3Cl)[nH]c2n1` [Example 2, (S)-2-(3-Chloro-4-morpholin-4-yl-pyridin-2-ylmethanesulfinyl)-5-methoxy-3H-imidazo[4,5-b]pyridine], the “Inhibition of acid secretion (%)” value is on record as over 50%.

On to `COc1ccc2nc([S@+]([O-])Cc3nccc(N4CCOCC4)c3Cl)[nH]c2n1` [Example 3, (R)-2-(3-Chloro-4-morpholin-4-yl-pyridin-2-ylmethanesulfinyl)-5-methoxy-3H-imidazo[4,5-]pyridine], for which the “Inhibition of acid secretion (%)” value is given as over 50%.

The record behind these values is patent US20070244115A1, “Amino-Halogen-Imidazopyridines as Proton Pump Inhibitors” (Alana Pharma AG, priority 2004, published 2007).
